Assay results as given in PubChem BioAssay (NCI).
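The concentration for 50% growth inhibition is given as GI50. The concentration for full growth arrest is given as TGI.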

Experiments:
Assay in all cases: growth of human tumour cells (NCI), 384-well format
[1] = tested on: A498 renal
[2] = tested on: CAKI-1 renal
[3] = tested on: EKVX NSCLC
[4] = tested on: HCT-15 colon
[5] = tested on: HS 578T breast
[6] = tested on: IGROV1 ovarian
[7] = tested on: MOLT-4 leukemia
[8] = tested on: NCI-H226 lung
[9] = tested on: NCI-H23 lung
[10] = tested on: NCI-H322M lung
[11] = tested on: OVCAR-4 ovarian
[12] = tested on: OVCAR-8 ovarian
[13] = tested on: SK-OV-3 ovarian

Row | Compound | GI50 [1] [µM] | TGI [1] [µM] | GI50 [2] [µM] | TGI [2] [µM] | GI50 [3] [µM] | TGI [3] [µM] | GI50 [4] [µM] | TGI [4] [µM] | GI50 [5] [µM] | TGI [5] [µM] | GI50 [6] [µM] | TGI [6] [µM] | GI50 [7] [µM] | TGI [7] [µM] | GI50 [8] [µM] | TGI [8] [µM] | GI50 [9] [µM] | TGI [9] [µM] | GI50 [10] [µM] | TGI [10] [µM] | other results
1 | Cc1nc(NC(=O)N2CCC[C@H]2C(N)=O)sc1-c1ccnc(C(C)(C)C(F)(F)F)c1 | 8.13 | 37.7 | 7.1 | 26.9 | 5.55 | 24.8 | 2.74 | 27.8 | 3.7 | 18.4 | 0.118 | 1.34 | 0.857 | 4.24 | 8.88 | 32.5 | 12.1 | 44.4 | 4.6 | 26.6 | GI50 [11]: 7.73 µM; TGI [11]: 40.7 µM; GI50 [12]: 14.3 µM; TGI [12]: 88.7 µM; GI50 [13]: 0.725 µM; TGI [13]: 12.1 µM
2 | CC(=O)N1CC(F)(F)c2c(Sc3ncc(N4CCC5(CC4)COC[C@H]5N)nc3N)cccc21 | 2.75 | 20.8 | 2.74 | 21.1 | 6.02 | 43.1 | 16.9 | 31.8 | 13.9 | 29.8 | 6.38 | 24.5 | 14.1 | 27.2 | 2.48 | 41.9 | 2.06 | 15.2 | 2.08 | 27.7 | GI50 [11]: 9.78 µM; TGI [11]: 35.9 µM; GI50 [12]: 11.9 µM; TGI [12]: 30.8 µM; GI50 [13]: 4.82 µM; TGI [13]: 19.1 µM
